Experiments:
[1] = test system: Ephx1; test: Ephx1 gene expression by qPCR after CL316,243 treatment; format: in vivo; settings: mice, daily 1 mg/kg intraperitoneally for 10 days
Description: (§1) Total RNA was extracted from tissue with Trizol and purified using a spin column kit (Zymo Research). RNA (500 ng-1 μg) was reverse transcribed with a high-capacity complementary DNA (cDNA) reverse transcription kit (Applied Biosystems). Real-time PCR was performed in mouse tissues starting with 10 ng of cDNA and forward and reverse oligonucleotide primers (300 nM each) in a final volume of 10 μl with SYBR green PCR Master Mix (Roche). Fluorescence was determined and analyzed in an ABI Prism 7900 sequence detection system (Applied Biosystems). Acidic ribosomal phosphoprotein P0 (ARBP) expression was used to normalize gene expression.

[2] = test system: Ephx2; test: Ephx2 gene expression by qPCR after CL316,243 treatment; format: in vivo; settings: mice, daily 1 mg/kg intraperitoneally for 10 days
Description: as §1

[3] = test system: mature brown adipocytes; test: In vitro fatty acid uptake (FFA-SS-Luc) in brown adipocytes constitutively expressing luciferase; format: cell-based, mice; settings: data not shown
Description: Stromal vascular cells were isolated from interscapular brown adipose tissue dissected from TgLuc mice (Stock no. 008450) obtained from The Jackson Laboratory. Cells were immortalized and differentiated into adipocytes in vitro according to the WT-1 protocol (Tseng, Y. H. et al., Mol. Cell Biol. 24, 1918-1929 (2004)). After 1 hour of serum starvation, mature adipocytes were treated with 1 μM 12,13-diHOME or methyl acetate vehicle in 0.1% w/v BSA in PBS for 15 minutes. After this treatment, cells were incubated with 10 μm FFA-SS-Luc (Intrace Medical) and imaged using the IVIS Spectrum CT using sequential 30 s exposures for 1 hour. Data was analyzed using Living Image Software and movies were assembled from individual images using ImageJ. All cultures were confirmed to be Mycoplasma free.

[4] = Acute BAT activation, serum 12,13-diHOME by LC-MS/MS; format: in vivo; settings: mice treated for 30 minutes
Description: All lipid standards were purchased from Cayman Chemical Company, Avanti Polar Lipids, or Santa Cruz Biotechnology, Inc. C18SPE cartridges were purchased from Biotage. All solvents are of HPLC or LC-MS/MS grade and were acquired from Sigma-Aldrich, Fisher Scientific, or VWR International. Tissue samples were homogenized in 0.1×PBS in Omni homogenizing tubes with ceramic beads at 4° C. Aliquots of 100 μL serum or 1 mg protein of homogenized tissue (measured by BCA) were taken, depending on the experiment. A mixture of deuterium-labeled internal standards was added to each aliquot, followed by 3× volume of sample of cold methanol (MeOH). Samples were vortexed for 5 min and stored at -20° C. overnight. Cold samples were centrifuged at 14,000 g for 10 min, and the supernatant was then transferred to a new tube and 3 mL of acidified H2O (pH 3.5) was added to each sample prior to C18 SPE and performed as previously described (Powell, W. S., Methods Mol Biol. 120, 11-24 (1999)). The methyl formate fractions were collected, dried under nitrogen, and reconstituted in 50 μL MeOH:H2O (1:1, by vol). […] The identity of a component was confirmed using PeakView® software (SCIEX), and quantification was performed using MultiQuantTM software (SCIEX). The quantification of 12,13-diHOME was performed against a standard calibration curve built with 5 points ranging from 0.01 pg/μL to 100 pg/μL. […]

Row | effect of NE treatment added to 12,13-diHOME on FFA-SS-Luc uptake in vitro [3] | Structure (SMILES) | Ephx1 expression in sWAT [1] | Ephx2 expression in BAT [2] | 12,13-diHOME production (serum concentration) [4]
1 |  | C[C@H](Cc1ccc2c(c1)OC(C(=O)[O-])(C(=O)[O-])O2)NC[C@H](O)c1cccc(Cl)c1.[Na+].[Na+] [CL316,243] | increased | increased | 
2 | no additive effect | NC[C@H](O)c1ccc(O)c(O)c1 [NE, Norepinephrine, reference compound] |  |  | induced
